# Experimental data taken from patent publication US20210139441A1 (priority 2017, published 2021).
# System: Crl:CD(SD) rats
# Conditions: rat, in vivo
smiles,measurement,setting,value
"FC(F)(F)[C@@H]1O[C@@H]1C(F)(F)F [(2R,3S)-2,3-bis(trifluoromethyl)oxirane, Cis-2,3-bis(trifluoromethyl)oxirane]",Fractional mortalities (number of deaths/number exposed),"both, Crl:CD(SD)",0/4
same,activity level and breathing rate,,decreased
same,bodyweight loss,,3 gram
same,clinical signs after exposure,,no abnormal clinical signs
same,clinical signs of toxicity,,no clinical signs of toxicity
same,startle response after exposure,,normal startle response
same,startle response during the exposure,,normal startle responses
same,state and response to sound stimulus,,prostrate and unresponsive to sound stimulus
